How the values were obtained:
[1] = test system: Staphylococcus aureus (H-Heatley) NRRL B-314; assay: turbidometric assay on semiautomated system (Autoturb), relative gram-positive activity; format: cell-based; details: relative to A-28086 factor A (standard); nutrient broth pH 7, four hours at 37° C.
Protocol: The C2 -C6 -acyl ester derivatives of A-28086 factor A also have antibacterial and antifungal activity. In one aspect, these derivatives have increased gram-positive activity. The relative gram-positive activities of certain of these derivatives were compared with the activity of factor A. The compounds were tested by turbidometric assay on a semiautomated system (Autoturb® microbiological assay system, Elanco) described by N. R. Kuzel and F. W. Kavanaugh in J. Pharmaceut. Sci. 60 (5), 764 and 767 (1971). In testing the A-28086 antibiotics, the following test parameters were used: Staphylococcus aureus (H-Heatley) NRRL B-314 in a nutrient broth medium (pH 7), incubated for four hours at 37° C. Test samples and the standard were dissolved in methanol-water (10:90). The standard, A-28086 factor A, was presented to the Autoturb® carrousel at concentrations of 2, 3, 4, and 5 mcg/ml. Test compounds were diluted to contain approximately 3 or 4 mcg of activity per ml, as presented to the carrousel. The relative activities of test compounds, as compared to that of the standard, are given below: […]

[2] = test system: rumen fluid; assay: in vitro rumen fluid volatile fatty acid production; design: species or system steer; details: 1 ppm in rumen fluid, 16 hours at 38° C.
Source text: As discussed hereinabove, efficiency of carbohydrate utilization in ruminants is increased by treatments which stimulate the amimal's rumen flora to produce propionate compounds rather than acetate or butyrate compounds. The efficiency of feed use can be monitored by observing the production and concentration of propionate compounds in the rumen, using the following methods:
Remen fluid is obtained from a steer with a surgically-installed fistula opening into the rumen. The steer is maintained on a high-grain ration. A sample of rumen fluid is strained through four layers of cheesecloth, and the filtrate is collected. The particulate matter retained by the cheesecloth is resuspended in enough physiological buffer to return it to the original volume of the rumen fluid, and this suspension is strained again. The buffer used has the following composition:
The two filtrates are combined and allowed to stand until particulate matter separates to the top. The clear layer is separated, diluted with the same buffer (1:1) and then adjusted to between pH 6.8 to 7.0.
The diluted rumen fluid (10 ml) is placed in a 25-ml flask with 40 mg of the above-described feed, an additional 1 mg of soybean protein, and the compound to be tested. Four replicate flasks are used per treatment. Two sets of four control flasks each are also employed. A zero-time control and an incubated 16-hour control are used. All test flasks are incubated for 16 hours at 38° C. […] The samples are allowed to settle, and the supernatants are analyzed by gas chromatography for propionate, acetate, and butyrate compounds.

CCCC(=O)OC1C=CC2(OC(C(CC)C(=O)C(C)C(O)C(C)C3OC(C(CC)C(=O)O)C(C)CC3C)C(C)CC2C)OC12CCC(C)(C1CCC(O)(CC)C(C)O1)O2 (stereo not shown)
Relative G+ Activity [1]: 8 | Ratio of Treated to Control, Molar % acetate [2]: 0.91 | Ratio of Treated to Control, Molar % butyrate [2]: 0.81 | Ratio of Treated to Control, Molar % propionate [2]: 1.56 | Ratio of Treated to Control, Total VFA mM/l [2]: 1.19

CCCCCC(=O)OC1C=CC2(OC(C(CC)C(=O)C(C)C(O)C(C)C3OC(C(CC)C(=O)O)C(C)CC3C)C(C)CC2C)OC12CCC(C)(C1CCC(O)(CC)C(C)O1)O2 (stereo not shown)
Relative G+ Activity [1]: 20 | Ratio of Treated to Control, Molar % acetate [2]: 0.86 | Ratio of Treated to Control, Molar % butyrate [2]: 0.97 | Ratio of Treated to Control, Molar % propionate [2]: 1.57 | Ratio of Treated to Control, Total VFA mM/l [2]: 0.99

CCC(=O)OC1C=CC2(OC(C(CC)C(=O)C(C)C(O)C(C)C3OC(C(CC)C(=O)O)C(C)CC3C)C(C)CC2C)OC12CCC(C)(C1CCC(O)(CC)C(C)O1)O2 (stereo not shown)
Relative G+ Activity [1]: 7 | Ratio of Treated to Control, Molar % acetate [2]: 0.90 | Ratio of Treated to Control, Molar % butyrate [2]: 0.68 | Ratio of Treated to Control, Molar % propionate [2]: 1.73 | Ratio of Treated to Control, Total VFA mM/l [2]: 1.25

CCCCC(=O)OC1C=CC2(OC(C(CC)C(=O)C(C)C(O)C(C)C3OC(C(CC)C(=O)O)C(C)CC3C)C(C)CC2C)OC12CCC(C)(C1CCC(O)(CC)C(C)O1)O2 (stereo not shown)
Relative G+ Activity [1]: 14 | Ratio of Treated to Control, Molar % acetate [2]: 0.92 | Ratio of Treated to Control, Molar % butyrate [2]: 0.79 | Ratio of Treated to Control, Molar % propionate [2]: 1.55 | Ratio of Treated to Control, Total VFA mM/l [2]: 1.18

CCC(C(=O)O)C1OC(C(C)C(O)C(C)C(=O)C(CC)C2OC3(C=CC(OC(C)=O)C4(CCC(C)(C5CCC(O)(CC)C(C)O5)O4)O3)C(C)CC2C)C(C)CC1C (stereo not shown) [A-28086 factor A acetyl ester derivative]
Relative G+ Activity [1]: 2.5 | Ratio of Treated to Control, Molar % acetate [2]: 0.79 | Ratio of Treated to Control, Molar % butyrate [2]: 0.76 | Ratio of Treated to Control, Molar % propionate [2]: 2.04 | Ratio of Treated to Control, Total VFA mM/l [2]: 1.04

Reference: patent US4085224A, “Method of increasing feed utilization” (Eli Lilly and Company, priority 1976, dated 1978)
